# Source: US20170016875A1, “ANISOTROPIC MUSCULAR TISSUE DEVICES WITH INTEGRATED ELECTRICAL FORCE READOUTS” (President and Fellows of Harvard College, priority 2014, published 2017)
# Test system: neonatal rat ventricular myocytes (NRVM)
# Experiment: spontaneous beating of NRVM muscle tissue layer on cantilever device, resistance readout
# Type: cell-based
# Details: after addition of 10 μM isoproterenol; NRVM muscle tissue layer in incubator, resistance versus time (FIG. 12B)
# Description: After placement of the wells, neonatal rat ventricular myocytes (NRVM) were seeded at a concentration of 0.3 Mio cells per ml medium, and the contraction of the resulting muscle tissue layers was tested on day 4-5 after seeding. Prior to testing, the cantilevers were released by lowering the sample temperature to room temperature to dissolve the […] sacrificial layer, meaning that the flexible substrate cantilevers were released from the underlying rigid glass substrate after development and growth of the tissue.
structure (smiles),measurement,value
CC(C)NCC(O)c1ccc(O)c(O)c1 (stereo not shown) [isoproterenol],spontaneous beating frequency of the cells,significantly increased
